The values below come from PubChem BioAssay AID248 (DTP/NCI, 2004).

For this assay, the system named is L1210 leukemia ip in BDF1 mice, survival T/C. Kind of assay: NCI In Vivo Anticancer Drug Screen. Data for tumor model L1210 Leukemia (intraperitoneal) in B6D2F1 (BDF1) mice. As to conditions: endpoint: mean survival time, higher = longer survival. The gist of the method:
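Tumor was transplanted into mice, which were then dosed with test compound or vehicle alone. Survival was recorded for each group, and the treated figure was expressed relative to the control figure.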

Where [1] appears, read: dose: 100.0 mg/kg/injection, schedule: Q01DX009 (ip), vehicle: Klucel (hydroxypropylcellulose) (HPC).
The mark [2] stands for this setting: dose: 100.0 mg/kg/injection, schedule: Q04DX003 (ip), vehicle: Klucel (hydroxypropylcellulose) (HPC).
[3] abbreviates: dose: 200.0 mg/kg/injection, schedule: Q01DX009 (ip), vehicle: Klucel (hydroxypropylcellulose) (HPC).
The mark [4] stands for this setting: dose: 200.0 mg/kg/injection, schedule: Q04DX003 (ip), vehicle: Klucel (hydroxypropylcellulose) (HPC).
The mark [5] stands for this setting: dose: 400.0 mg/kg/injection, schedule: Q01DX009 (ip), vehicle: Klucel (hydroxypropylcellulose) (HPC).
[6] abbreviates: dose: 400.0 mg/kg/injection, schedule: Q04DX003 (ip), vehicle: Klucel (hydroxypropylcellulose) (HPC).
[7] abbreviates: dose: 100.0 mg/kg/injection, schedule: Q01DX001 (ip), vehicle: carboxymethylcellulose (CMC).
[8] abbreviates: dose: 200.0 mg/kg/injection, schedule: Q01DX001 (ip), vehicle: carboxymethylcellulose (CMC).
[9] abbreviates: dose: 400.0 mg/kg/injection, schedule: Q01DX001 (ip), vehicle: carboxymethylcellulose (CMC).
The mark [10] stands for this setting: dose: 50.0 mg/kg/injection, schedule: Q01DX001 (ip), vehicle: saline.
The mark [11] stands for this setting: dose: 100.0 mg/kg/injection, schedule: Q01DX001 (ip), vehicle: saline.
Setting [12] is: dose: 200.0 mg/kg/injection, schedule: Q01DX001 (ip), vehicle: saline.

The structures appear in SMILES notation. Where “and” joins values, the source holds several entries; their conditions need not be identical. Identical values can stand only once. Inconclusive results and toxic doses are left out.

As for `Cc1ccc(NC(=O)N(CCCl)N=O)c(C)c1`, the T/C (dose: 10.0 mg/kg/injection, schedule: Q01DX009 (ip), vehicle: other) is 180 % of control; the T/C (dose: 16.0 mg/kg/injection, schedule: Q01DX009 (ip), vehicle: other) is 241 % of control; the T/C (dose: 24.0 mg/kg/injection, schedule: Q01DX009 (ip), vehicle: other) was 158 % of control; the T/C (dose: 25.0 mg/kg/injection, schedule: Q01DX001 (ip), vehicle: other) is 153 % of control; the T/C (dose: 50.0 mg/kg/injection, schedule: Q01DX001 (ip), vehicle: other) is 158 % of control; the T/C (dose: 100.0 mg/kg/injection, schedule: Q01DX001 (ip), vehicle: other) is 101 % of control.

Turning to `COc1c(C)cc(Br)c2c1C(CCN(C)S(=O)(=O)Cc1ccccc1)CCC2` (stereo unspecified), the T/C by setting is: under setting [1], 95 % of control; under setting [2], 96 % of control; under setting [3], 89 % of control; under setting [4], 98 % of control; under setting [5], 93 % of control; under setting [6], 91 % of control.

Regarding `Cc1cccc(NC(=O)Nc2cccc(C(F)(F)F)c2)c1`, the T/C reads like this: under setting [7], 97 % of control; under setting [8], 101 % of control; under setting [9], 97 % of control.

As to `C1=CCC2CN(CCCN3CCOCC3)CC2C1` (stereo unspecified), the T/C is, setting by setting: (dose: 100.0 mg/kg/injection, schedule: Q01DX001 (ip), vehicle: saline with Tween-80) 103 % of control; (dose: 200.0 mg/kg/injection, schedule: Q01DX001 (ip), vehicle: saline with Tween-80) 108 % of control; (dose: 400.0 mg/kg/injection, schedule: Q01DX001 (ip), vehicle: saline with Tween-80) 105 % of control.

Take `C/C=C\C=C\C(=O)O`: the T/C is 97 % of control (dose: 100.0 mg/kg/injection, schedule: Q04DX002 (ip), vehicle: Klucel (hydroxypropylcellulose) (HPC)); 94 % of control (dose: 200.0 mg/kg/injection, schedule: Q04DX002 (ip), vehicle: Klucel (hydroxypropylcellulose) (HPC)); 103 % of control (dose: 400.0 mg/kg/injection, schedule: Q04DX002 (ip), vehicle: Klucel (hydroxypropylcellulose) (HPC)).

On to `[N-]=[N+]=Nc1ccc(-c2nc(N)[nH]c(=O)c2Br)cc1`, for which the T/C under setting [2] is 93 % of control, the T/C under setting [4] was 86 % of control and the T/C under setting [6] is 100 % of control.

Consider `CC1=CC(OC2CCCCO2)C2CC1C2(C)C` (stereo unspecified), for which the T/C was 97 % of control under setting [1]; 98 % of control under setting [2]; 103 % of control under setting [3]; 95 % of control under setting [4]; 92 % of control under setting [5]; 93 % of control under setting [6].

Turning to `O=C(O)C(c1ccccc1)(c1ccccc1)c1ccccc1`, the T/C was 101 % of control under setting [10], 106 % of control under setting [11] and 103 % of control under setting [12].

Turning to `CS(=O)(=O)OCCN(CCOS(C)(=O)=O)c1cccc(F)c1`, the T/C reads like this: (dose: 5.0 mg/kg/injection, schedule: Q01DX001 (ip), vehicle: saline) 98 % of control and 113 % of control; (dose: 9.0 mg/kg/injection, schedule: Q01DX001 (ip), vehicle: saline) 98 % of control; (dose: 10.0 mg/kg/injection, schedule: Q01DX001 (ip), vehicle: saline) 100 % of control; (dose: 13.0 mg/kg/injection, schedule: Q01DX001 (ip), vehicle: saline) 96 % of control; (dose: 30.0 mg/kg/injection, schedule: Q01DX001 (ip), vehicle: saline) 97 % of control; (dose: 40.0 mg/kg/injection, schedule: Q01DX001 (ip), vehicle: saline) 100 % of control. In addition, the T/C runs as follows: under setting [10], 103 % of control; (dose: 80.0 mg/kg/injection, schedule: Q01DX001 (ip), vehicle: saline) 98 % of control and 87 % of control; under setting [11], 105 % of control; under setting [12], 121 % of control.

Take `Cc1ccc(S(=O)(=O)/N=S(\CCCl)CCc2ccccc2)cc1` (stereo unspecified): the T/C reads like this: under setting [2], 97 % of control; under setting [4], 97 % of control; under setting [6], 90 % of control.

`O=S1(=O)CCCO1`: the T/C runs as follows: (dose: 100.0 mg/kg/injection, schedule: Q01DX009 (ip), vehicle: other) 103 % of control; (dose: 200.0 mg/kg/injection, schedule: Q01DX009 (ip), vehicle: other) 109 % of control.

On to `Oc1c(Cl)cc(Cl)cc1C1N(Cc2ccc(N(CCCl)CCCl)cc2Cl)CCCN1Cc1ccc(N(CCCl)CCCl)cc1Cl`, for which the T/C was 109 % of control (dose: 50.0 mg/kg/injection, schedule: Q01DX001 (ip), vehicle: carboxymethylcellulose (CMC)); 105 % of control under setting [7]; 103 % of control under setting [8]; 103 % of control under setting [9].

`CC1COC(C(C)C)O1` (stereo unspecified): the T/C by setting is: (dose: 50.0 mg/kg/injection, schedule: Q01DX009 (ip), vehicle: acetone) 90 % of control; (dose: 100.0 mg/kg/injection, schedule: Q01DX009 (ip), vehicle: acetone) 97 % of control; (dose: 100.0 mg/kg/injection, schedule: Q04DX003 (ip), vehicle: acetone) 95 % of control; (dose: 200.0 mg/kg/injection, schedule: Q01DX009 (ip), vehicle: acetone) 95 % of control; (dose: 200.0 mg/kg/injection, schedule: Q04DX003 (ip), vehicle: acetone) 103 % of control; (dose: 400.0 mg/kg/injection, schedule: Q04DX003 (ip), vehicle: acetone) 90 % of control.

Consider `CCOC(=O)/C=C(/CC(=O)OCC)OCC`, for which the T/C (dose: 50.0 mg/kg/injection, schedule: Q01DX005 (ip), vehicle: saline) is 104 % of control; the T/C (dose: 100.0 mg/kg/injection, schedule: Q01DX005 (ip), vehicle: saline) was 94 % of control; the T/C (dose: 200.0 mg/kg/injection, schedule: Q01DX005 (ip), vehicle: saline) is 96 % of control; the T/C (dose: 400.0 mg/kg/injection, schedule: Q01DX005 (ip), vehicle: saline) was 100 % of control.

In the case of `CCOC(=O)c1cnc(C)nc1Nc1ccccc1C`, the T/C reads like this: under setting [2], 88 % of control; under setting [4], 98 % of control; under setting [6], 105 % of control.

Take `O=[N+]([O-])c1ccc(N=C=C(c2ccccc2)c2ccccc2)cc1`: the T/C is 112 % of control (dose: 100.0 mg/kg/injection, schedule: Q04DX002 (ip), vehicle: DMSO); 91 % of control (dose: 200.0 mg/kg/injection, schedule: Q04DX002 (ip), vehicle: DMSO); 94 % of control (dose: 400.0 mg/kg/injection, schedule: Q04DX002 (ip), vehicle: DMSO).

Turning to `Cc1cccc(OCCOc2cccc(C)c2)c1`, the T/C is, setting by setting: under setting [11], 98 % of control; under setting [12], 94 % of control.

For the molecule `CNC(=N)c1ccc(NC(=N)c2ccc(NC(=O)Nc3ccc(NC(=O)Nc4ccc(C(=N)Nc5ccc(C(=N)NC)cc5)cc4)cc3)cc2)cc1`, the T/C reads like this: (dose: 0.5 mg/kg/injection, schedule: Q01DX015 (ip), vehicle: water) 103 % of control; (dose: 1.0 mg/kg/injection, schedule: Q01DX015 (ip), vehicle: water) 116 % of control; (dose: 2.0 mg/kg/injection, schedule: Q01DX015 (ip), vehicle: water) 152 % of control; (dose: 5.0 mg/kg/injection, schedule: Q01DX Z (ip), vehicle: water) 156 % of control; (dose: 7.5 mg/kg/injection, schedule: Q01DX Z (ip), vehicle: water) 180 % of control; (dose: 10.0 mg/kg/injection, schedule: Q01DX Z (ip), vehicle: water) 150 % of control. The T/C is, setting by setting: (dose: 15.0 mg/kg/injection, schedule: Q01DX Z (ip), vehicle: water) 161 % of control; (dose: 20.0 mg/kg/injection, schedule: Q01DX Z (ip), vehicle: water) 104 % of control; (dose: 30.0 mg/kg/injection, schedule: Q01DX Z (ip), vehicle: water) 87 % of control; (dose: 35.7 mg/kg/injection, schedule: Q01DX Z (ip), vehicle: water) 101 % of control.

Regarding `OC(Nc1ncccn1)C(Cl)(Cl)Cl` (stereo unspecified), the T/C was 96 % of control (dose: 100.0 mg/kg/injection, schedule: Q01DX009 (ip), vehicle: saline sonified); 95 % of control under setting [2]; 94 % of control (dose: 200.0 mg/kg/injection, schedule: Q01DX009 (ip), vehicle: saline sonified); 102 % of control under setting [4]; 89 % of control (dose: 400.0 mg/kg/injection, schedule: Q01DX009 (ip), vehicle: saline sonified); 101 % of control under setting [6].
